Assays:
[1] = target: TRα LBD (Homo sapiens, UniProt P10827); assay: In vitro thyroid hormone receptor binding assay (TR-FRET coactivator assay), TRα LBD; conditions: Biotin-SRC2-2, 1 hour at room temperature
Experimental: (§1) In Vitro Thyroid Hormone Receptor Binding Assay
(§2) The interaction between the compounds of present invention and Human Thyroid Receptor (TR) are evaluated by Time-Resolved Fluorescence Resonance Energy Transfer (TR-FRET) competition assay. FRET describes a radiation-free energy transfer between two chromophores: a donor fluorophore in its excited state can transfer energy to an acceptor fluorophore in close proximity (typically <10 nm). In contrast to standard FRET, TR-FRET unites time-resolved fluorescence (TRF) and the FRET principle. TRF use a long-lifetime lanthanide chelate as the donor species, while lanthanide chelates are unique in that their excited-state lifetime can be on the order of a millisecond or longer. Suitable neighbors for FRET are known in the art and can be obtained. The assay was adopted from the manual of LanthaScreen™ TR-FRET Thyroid Receptor beta Coactivator Assay kit from Invitrogen.
(§3) The assay is performed in following steps: first, prepare reaction buffer containing 50mMTris-HCl (pH7.4) with 100 mM NaCl, 1mMEDTA, 50mMKF, 1mMDTT, 1mMMgCl2, 10% glycerol, 0.01% NP-40, 0.1% BSA. Second, use the buffer to prepare the appropriate dilution series of the test and reference compounds. The3,3′,5-Triiodothyronine (T3) was used aspositive control agonist. Third, add 5 μl of 4× compoundserial dilution and 5 μl TRa LBD (4×, 4 nM) (or 5 μl TRβ LBD, 4×, 2 nM) into 384-well plate (784075, greiner). Then, add 10 μl of a solution consist of 400 nM Biotin-SRC2-2 (2×) and anti-GST Eu (1:200, 2×) and 50 nM anti-biotin-d2 (2×) in 1× reaction buffer to initiate the reaction. Centrifuge the plates at 1000 g for 1 min and then incubate 1 hour at room temperature protected from light. Finally, read the plate at wavelengths of 665 nm and 615nmonEnvision2104 plate reader.
(§4) A ratio (Ratio665 nm/615 nm−Ratiobackground) is calculated for each well. Percentage of activity, as well as EC50 was calculated. Effect-dose curve was plotted. Relative selectivity was calculated as the ratio of EC50TRα/EC50TRβ.

[2] = target: T1, TRβ LBD (Homo sapiens, UniProt P10828); assay: In vitro thyroid hormone receptor binding assay (TR-FRET coactivator assay), TRβ LBD; conditions: for EC50: TR-FRET, TRβ LBD, Biotin-SRC2-2, 1 hour at room temperature
T1 construct: (or 5 μl TRβ LBD, 4×, 2 nM)
T1 sequence (P10828 217-461 limits assumed): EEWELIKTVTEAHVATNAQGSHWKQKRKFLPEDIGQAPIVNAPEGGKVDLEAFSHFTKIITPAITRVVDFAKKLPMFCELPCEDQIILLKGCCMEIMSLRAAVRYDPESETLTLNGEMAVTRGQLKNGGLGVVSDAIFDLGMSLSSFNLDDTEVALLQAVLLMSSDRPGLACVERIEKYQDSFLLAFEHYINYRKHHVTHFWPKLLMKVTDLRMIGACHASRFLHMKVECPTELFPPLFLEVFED
Experimental: as §1, §2, §3, §4

TRα LBD, sequence (P10827 163-410 isoform P10827-2 limits assumed, other chains not shown): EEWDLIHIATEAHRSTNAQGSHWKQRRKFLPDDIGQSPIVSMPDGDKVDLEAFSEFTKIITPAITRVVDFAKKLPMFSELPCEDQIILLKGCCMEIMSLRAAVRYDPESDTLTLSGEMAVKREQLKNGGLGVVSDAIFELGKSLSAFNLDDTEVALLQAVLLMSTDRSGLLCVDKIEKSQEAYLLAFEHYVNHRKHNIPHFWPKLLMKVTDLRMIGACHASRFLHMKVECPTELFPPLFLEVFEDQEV

| EC50 [1] | EC50 [2] | Relative Selectivity TR-α/TR-β ([2]; ratio of EC50 TRα/EC50 TRβ, TR-FRET assay) | Compound |
| --- | --- | --- | --- |
| > 100 µM | > 10 µM | – | CC(C)c1cn(Cc2c(Cl)cc(-n3nc(C#N)c(=O)[nH]c3=O)cc2Cl)cnc1=O [Compound I30, 2-(3,5-dichloro-4-((5-isopropyl-4-oxopyrimidin-1 (4H)-yl)methyl)phenyl)-3,5-dioxo-2,3,4,5-tetrahydro-1,2,4-triazine-6-carbonitrile] |
| > 100 µM | > 10 µM | – | CC(C)c1cn(Cc2c(Cl)cc(-n3nc(C#N)c(=O)[nH]c3=O)cc2Cl)c(=O)[nH]c1=O [Compound I31, 2-(3,5-dichloro-4-((5-isopropyl-2,4-dioxo-3,4-dihydropyrimidin-1(2H)-yl)methyl)phenyl)-3,5-dioxo-2,3,4,5-tetrahydro-1,2,4-triazine-6-carbonitrile] |
| 1.79 µM | 0.854 µM | 2.09 | N#Cc1nn(-c2cc(Cl)c(Oc3ccc4[nH]c(=O)[nH]c4c3)c(Cl)c2)c(=O)[nH]c1=O [Compound I15, 2-(3,5-dichloro-4-((2-oxo-2,3-dihydro-1H-benzo[d]imidazol-5-yl)oxy)phenyl)-3,5-dioxo-2,3,4,5-tetrahydro-1,2,4-triazine-6-carbonitrile] |
